Experimental data published in PubChem BioAssay (NCI).
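48-hour exposure; five concentrations; linearly interpolated endpoints. Abbreviation: GI50, concentration required for 50% inhibition of growth. TGI: concentration producing complete growth inhibition.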

What was measured:
Assay in all cases: NCI-60 cell line screen, 48 h
786-0 renal = system: 786-0 renal
A498 renal = system: A498 renal
A549 NSCLC = system: A549 NSCLC
ACHN renal = system: ACHN renal
BT-549 breast = system: BT-549 breast
CAKI-1 renal = system: CAKI-1 renal
CCRF-CEM leukemia = system: CCRF-CEM leukemia
COLO 205 colon = system: COLO 205 colon
DU-145 prostate = system: DU-145 prostate
EKVX NSCLC = system: EKVX NSCLC
HCC-2998 colon = system: HCC-2998 colon
HCT-116 colon = system: HCT-116 colon
HCT-15 colon = system: HCT-15 colon
HL-60(TB) leukemia = system: HL-60(TB) leukemia
HOP-62 NSCLC = system: HOP-62 NSCLC
HOP-92 NSCLC = system: HOP-92 NSCLC
HS 578T breast = system: HS 578T breast
HT29 colon = system: HT29 colon
IGROV1 ovarian = system: IGROV1 ovarian
K-562 leukemia = system: K-562 leukemia
KM12 colon = system: KM12 colon
LOX IMVI melanoma = system: LOX IMVI melanoma
M14 melanoma = system: M14 melanoma
MALME-3M melanoma = system: MALME-3M melanoma
MCF7 breast = system: MCF7 breast
MDA-MB-231 breast = system: MDA-MB-231 breast
MDA-MB-435 = system: MDA-MB-435
MDA-MB-468 breast = system: MDA-MB-468 breast
MOLT-4 leukemia = system: MOLT-4 leukemia
NCI-H226 lung = system: NCI-H226 lung

CC1(c2ccccc2)NC(=O)N(CC(=O)Nc2ccc(C(=O)/C=C/c3ccccc3)cc2)C1=O (centres undefined)
GI50 (786-0 renal): 13.7 µM | TGI (786-0 renal): 27.4 µM | GI50 (A498 renal): 14.2 µM | TGI (A498 renal): 28.7 µM | GI50 (A549 NSCLC): 10.8 µM | TGI (A549 NSCLC): 27.7 µM | GI50 (ACHN renal): 13.2 µM | TGI (ACHN renal): 31 µM | GI50 (BT-549 breast): 8.21 µM | TGI (BT-549 breast): 21.6 µM | GI50 (CAKI-1 renal): 11.5 µM | TGI (CAKI-1 renal): 29.6 µM | GI50 (CCRF-CEM leukemia): 5.76 µM | TGI (CCRF-CEM leukemia): 41.3 µM | GI50 (COLO 205 colon): 14.2 µM | TGI (COLO 205 colon): 29.6 µM | GI50 (DU-145 prostate): 13.7 µM | TGI (DU-145 prostate): 28.9 µM | GI50 (EKVX NSCLC): 7.62 µM | TGI (EKVX NSCLC): 33 µM | GI50 (HCC-2998 colon): 4.25 µM | TGI (HCC-2998 colon): 14.3 µM | GI50 (HCT-116 colon): 1.63 µM | TGI (HCT-116 colon): 3.35 µM | GI50 (HCT-15 colon): 14.2 µM | TGI (HCT-15 colon): 35.3 µM | GI50 (HL-60(TB) leukemia): 12.3 µM | TGI (HL-60(TB) leukemia): 68.3 µM | GI50 (HOP-62 NSCLC): 18.2 µM | TGI (HOP-62 NSCLC): 53.5 µM | GI50 (HOP-92 NSCLC): 9.31 µM | TGI (HOP-92 NSCLC): 69.2 µM | GI50 (HS 578T breast): 20.5 µM | TGI (HS 578T breast): > 100 µM | GI50 (HT29 colon): 7.82 µM | TGI (HT29 colon): 24.6 µM | GI50 (IGROV1 ovarian): 12.9 µM | TGI (IGROV1 ovarian): 27.7 µM | GI50 (K-562 leukemia): 4.03 µM | TGI (K-562 leukemia): > 100 µM | GI50 (KM12 colon): 4.94 µM | TGI (KM12 colon): 26.8 µM | GI50 (LOX IMVI melanoma): 7.56 µM | TGI (LOX IMVI melanoma): 20.8 µM | GI50 (M14 melanoma): 9.54 µM | TGI (M14 melanoma): 22.7 µM | GI50 (MALME-3M melanoma): 15 µM | TGI (MALME-3M melanoma): 38.9 µM | GI50 (MCF7 breast): 3.15 µM | TGI (MCF7 breast): 14 µM | GI50 (MDA-MB-231 breast): 11.7 µM | TGI (MDA-MB-231 breast): 30.9 µM | GI50 (MDA-MB-435): 3.11 µM | TGI (MDA-MB-435): 13.5 µM | GI50 (MDA-MB-468 breast): 5.7 µM | TGI (MDA-MB-468 breast): 20.6 µM | GI50 (MOLT-4 leukemia): 7.1 µM | TGI (MOLT-4 leukemia): 57.1 µM | GI50 (NCI-H226 lung): 15.8 µM
